These results are taken from publication PMC12734986 (Marine Drugs, 2025).

In data set [1] the test system is NSCLC cells. As to the kind of experiment: Transwell invasion assay (Matrigel-coated). In kind it is cell-based, human. The following applies: 10 μM. The method, then: (§1) Cell migration and invasion were assessed using Transwell chambers with 8 μm pores (BD Biosciences). Cancer cells (2 × 10^4) were seeded in serum-free medium in the upper chamber, while medium containing 10% FBS was placed in the lower chamber. Matrigel-coated upper chambers were used for invasion assays. Following incubation, the migratory and invasive cells were fixed, stained with crystal violet, and imaged under a light microscope.

Data set [2] deals with caspase-9 in NSCLC cells (A549, H460, H1299). As to the kind of experiment: Active caspase-9 (FITC-LEHD-FMK) staining. The data set is classed as cell-based, human. The method, then: (§2) The treated cells (1 × 10^6) were harvested, washed with PBS, and collected by centrifugation. Cells were stained with Annexin V and propidium iodide (PI) solution (556547; BD Biosciences, San Jose, CA, USA), followed by incubation at 37 °C for 15 min. […] As a negative control, z-VAD-FMK was added to each experimental condition according to the manufacturer’s instructions (ab65615; caspase 9 FITC staining kit). The cells were resuspended in 300 μL of a washing buffer and were analyzed by a flow cytometer (Accuri C6 Plus; BD Biosciences, San Jose, CA, USA).

Data set [3] deals with NSCLC cells. As to the kind of experiment: Transwell migration assay. In kind it is cell-based, human. Particulars: Transwell 8 μm pores, 10 μM. The method, then:
as §1

In data set [4] the test system is horse blood erythrocytes. As to the kind of experiment: Hemolytic activity assay. In kind it is cell-based. Particulars: 20 μM. The text has this: In this assay, 1% Triton X-100, which causes 100% hemolysis of horse blood erythrocytes, was used as a positive control to indicate complete cell lysis. DW solution served as a negative control, indicating no hemolytic activity.

Data set [5] relates to A549 xenograft in BALB/c nude mice. As to the kind of experiment: A549 xenograft tumor growth. The data set is classed as in vivo, mouse. The following applies: 20 mg/kg intratumorally, every other day, six injections, subcutaneous A549. The method, then:
(§3) Xenograft tumors were generated by subcutaneous injection of A549 lung cancer cells (1 × 10^6 cells/100 µL) into the right flanks of BALB/c female nude mice (5 weeks of age, n = 20). […] The control mice were injected with equal volumes of DW. The tumor size was measured using a caliper (calculated volume = shortest diameter^2 × […]) at 2- or 3-day intervals. The methods were performed in accordance with the relevant guidelines and regulations and were approved by the Animal Care and Use Committee (IACUC) of the National Marine Biodiversity Institute of Korea (Approval No.: MAB-004; approval date: 2 December 2024).

In data set [6] the test system is lung cancer cells. As to the kind of experiment: Cell morphology by inverted light microscope. In kind it is cell-based, human. Particulars: 10 μM MP28, lung cancer cells. The method, then:
(§4) Lung cancer cells were seeded at a density of 10^3 cells in a 35 mm dish and cultured with the peptide for 7 days, until macroscopic colonies formed. Following incubation, the cells were washed and stained with 0.1% crystal violet for 30 min, and the colonies were imaged and counted. Cell morphology was observed and captured at ×10 magnification using an inverted light microscope.

In data set [7] the test system is H1299 cells. As to the kind of experiment: Annexin V/PI staining, flow cytometry. In kind it is cell-based, human. The method, then: as §2
In general terms: In flow cytometry, cells or beads pass a laser one at a time.

Data set [8] has as its system H460 cells. As to the kind of experiment: Annexin V/PI staining, flow cytometry. In kind it is cell-based, human. The method, then: as §2
Data set [9] deals with A549 cells. As to the kind of experiment: Annexin V/PI staining, flow cytometry. The data set is classed as cell-based, human. Particulars: A549, upper end of the increase (20 μM). The method, then:
as §2

Data set [10] can be described thus: Body weight in the A549 xenograft model. In kind it is in vivo, mouse. Particulars: 20 mg/kg intratumorally, six injections, during the treatment period. The method, then: as §3
Data set [11] relates to lung cancer cells. As to the kind of experiment: Wound-healing assay. In kind it is cell-based, human. Particulars: more pronounced at 24 h. The method, then: For the wound-healing assays, cancer cells were grown to >90% confluence in 6-well plates, and scratches were created using a pipette tip. After washing, the cells were incubated in a medium with 10% FBS for 18 h and 24 h. Wound closure was monitored using an inverted phase-contrast microscope (CKX53, Olympus, Shinjuku, Tokyo, Japan), and migration was quantified by measuring the distance between wound edges at multiple sites.

The subject of data set [12] is NSCLC cells (A549, H460, H1299). As to the kind of experiment: Colony formation assay. The data set is classed as cell-based, human. The following applies: 10 and 20 μM, 7 days, crystal violet, all NSCLCs. The method, then:
as §4

The subject of data set [13] is cellular vimentin in lung cancer cells. As to the kind of experiment: Vimentin immunofluorescence staining. The following applies: 10 μM MP28, immunofluorescence. In kind it is cell-based, human.

Residues, ends and D or L forms follow the SMILES beside them.

For `CC(C)C[C@H](NC(=O)[C@H](Cc1c[nH]c2ccccc12)NC(=O)[C@@H]1CCCN1C(=O)[C@H](CCCCN)NC(=O)[C@H](CCCCN)NC(=O)[C@H](CS)NC(=O)[C@@H](N)CS)C(=O)N[C@@H](CCCNC(=N)N)C(=O)N[C@@H](CS)C(=O)N[C@@H](Cc1c[nH]c2ccccc12)C(=O)N[C@@H](CCCNC(=N)N)C(=O)N[C@H](C(=O)N[C@@H](CS)C(=O)N[C@@H](CC(C)C)C(=O)N1CCC[C@H]1C(=O)N[C@@H](CO)C(=O)N[C@@H](CCCNC(=N)N)C(=O)N[C@@H](Cc1c[nH]c2ccccc12)C(=O)N[C@@H](CCC(N)=O)C(=O)N[C@@H](CCCNC(=N)N)C(=O)N[C@@H](CCC(=O)O)C(=O)N[C@@H](CCCNC(=N)N)C(=O)N[C@@H](Cc1ccccc1)C(=O)NCC(=O)N[C@@H](CCCNC(=N)N)C(=O)N[C@@H](CCCCN)C(=O)N[C@@H](CS)C(N)=O)[C@@H](C)O` [MP28] (H-CCKKPWLRCWRTCLPSRWQRERFGRKC-NH2; N-terminus assumed), the invasive capacity entry in data set [1] was “significantly reduced”. Also, in data set [2] (10 μM MP28 for 3 h, NSCLCs, FITC fluorescence microscopy and flow cytometry), the caspase-9 activation entry is “triggered caspase-9 activation”. The “induction of cleaved caspase-9” value in [2] (A549 and H460 cells (wild-type p53)) was “more rapid and robust induction of cleaved caspase-9”; in data set [2] (H1299 cells (p53-deficient)), “weaker activation signal”. Moreover, in data set [3], the migratory capacity result is reported as “significantly reduced”. For the same molecule, the “hemolysis (in words)” value in data set [4] is on record as “no or minimal hemolysis”. The “tumor growth versus control” value in data set [5] was “tumor growth was significantly slower”. The morphological changes entry in data set [6] is recorded as “morphological changes from a spindle to a cobblestone-like shape”. The “percentage of apoptotic cells” value in [7] (H1299, lower end of the increase (10 μM as read from the text)) was found to be 3.1%; in [7] (H1299, upper end of the increase (20 μM)) it was 17.8%; in data set [8] (H460, lower end of the increase (10 μM as read from the text)), 7.5%; in data set [8] (H460, upper end of the increase (20 μM)) it was 19.2%; in data set [9] it was 15.6%. Moreover, the “body weight versus control” value in data set [10] is listed as “No significant loss of body weight”. For the same molecule, the “residual wound area versus control” value in data set [11] was “larger residual wound areas”. Moreover, in data set [12], the “colony formation (long term cell proliferation)” value is listed as “markedly reduced cell growth”. For the same molecule, in data set [13], the cellular vimentin level entry is listed as “decreased the levels of cellular vimentin”.
